Data published in patent publication EP1401829B1, “NOVEL HETEROCYCLIC ANTIBACTERIAL COMPOUNDS” (Microbiotix, Inc., priority 2001, dated 2002).
In brackets after ≈: the same amount, converted by molar mass. Like-named read-outs stand apart in the source and are kept apart here.

Tests used:
B. subtilis Pol IIIC = molecular target: T1, B. subtilis Pol IIIC (Bacillus subtilis, UniProt P13267); test: Polymerase IIIC (Pol IIIC) assay, determination of Ki values; format: biochemical; settings: assay in absence of dGTP or dATP, Ki is the concentration that reduces control polymerase IIIC activity by 50 percent
T1 construct: made in house
Procedure: (§1) The following methods were used to characterize representative compounds. Minimal Inhibitory Concentration (MIC) determinations. MIC values were determined in 96 well plates, with bacterial growth monitored at OD 600 nm in 200µl following an initial bacterial seeding at approximately 1x10^5 colony forming units (CFU)/ml. Each drug is evaluated at five concentrations, with five data points at each dilution. MIC values (µg/ml) were determined against actively growing cultures in Heart-Brain Infusion (HBI) medium. Cell growth in cultures supplemented with a test compound was calculated as a percent of control at OD 600 nm after 16 to 18 hours at 37°C. […] Polymerase IIIC (Pol IIIC) assay. DNA polymerase activity (or inhibition thereof) was measured in a 96-well plate format. B. subtilis Pol IIIC was isolated as described by Hammond and Brown (Protein Expr. Purif., 3: 65-70 (1992)). Each 25 µl assay contained 30 mM Tris, pH 7.5, 10 mM magnesium acetate, 4 mM dithiothreitol, 20% glycerol, with 25 µM dATP, dCTP, dGTP and 10 µM dTTP (^3H-labelled at 1.44 Ci/mmole) and 0.4 mg/ml activated calf thymus DNA as substrates, as described previously (see Barnes et al, op. cit). Assays were initiated by the addition of 0.025 to 0.06 units of enzyme 1 unit is the amount required to incorporate 250 pmoles of [^3H] dTMP in a standard assay), incubated for 10 minutes at 30°C and terminated by the addition of 200 µl of cold 10% trichloroacetic acid (TCA),10 mM sodium pyrophosphate. Precipitated labeled DNA was collected on glass fiber filter plates, washed, dried, and counted in a liquid scintillation counter. Determination of Ki values. DNA polymerase activity was measured in a 96-well plate format in the absence of dGTP or dATP, depending on the structure of the test compound. Each 25 µl assay contained 30 mM Tris, pH 7.5, 10 mM magnesium acetate, 4 mM dithiothreitol, 20% glycerol, with 25 µM dATP, dCTP, and 10 µM dTTP (^3H-labelled at 1.44 Ci/mmole) and 0.4 mg/ml activated calf thymus DNA as substrates, as described previously. […] Assays were initiated by the addition of 0.025 to 0.06 units of enzyme (1 unit is the amount required to incorporate 250 pmoles of [^3H] dTMP in a standard assay), incubated for 10 minutes at 30 °C and terminated by the addition of 200 µl of cold 10% trichloroacetic acid, 10 mM sodium pyrophosphate. Precipitated labeled DNA was collected on glass fiber filter plates, washed, dried, and counted in a liquid scintillation counter. Ki is the concentration of test compound that reduces the control polymerase IIIC activity by 50 percent.

B. subtilis = test: Minimal Inhibitory Concentration (MIC) determination, 96 well plates; format: cell-based, Bacillus subtilis; settings: HBI medium, 16 to 18 hours at 37°C; for MIC: Bacillus subtilis, read-out: MIC (µg/ml) B. subtilis
Procedure: as §1
(§2) MIC values were determined for the Gram positive bacteria Bacillus subtilis, Staphylococcus aureus (two strains), Enterococcus fecalis, Enterococcus fecium, and for the Gram negative bacterium Escherichia coli.

S. aureus = test: as above; format: cell-based, Staphylococcus aureus; settings: HBI medium, 16 to 18 hours at 37°C; for MIC: Staphylococcus aureus, read-out: MIC (µg/ml) S. aureus
Procedure: (§3) The following methods were used to characterize representative compounds. Minimal Inhibitory Concentration (MIC) determinations. MIC values were determined in 96 well plates, with bacterial growth monitored at OD 600 nm in 200µl following an initial bacterial seeding at approximately 1x10^5 colony forming units (CFU)/ml. Each drug is evaluated at five concentrations, with five data points at each dilution. MIC values (µg/ml) were determined against actively growing cultures in Heart-Brain Infusion (HBI) medium. Cell growth in cultures supplemented with a test compound was calculated as a percent of control at OD 600 nm after 16 to 18 hours at 37°C. This plate format conserves test compound and provides precise, quantitative data with low standard deviation determinations. Polymerase IIIC (Pol IIIC) assay. DNA polymerase activity (or inhibition thereof) was measured in a 96-well plate format. B. subtilis Pol IIIC was isolated as described by Hammond and Brown (Protein Expr. Purif., 3: 65-70 (1992)). Each 25 µl assay contained 30 mM Tris, pH 7.5, 10 mM magnesium acetate, 4 mM dithiothreitol, 20% glycerol, with 25 µM dATP, dCTP, dGTP and 10 µM dTTP (^3H-labelled at 1.44 Ci/mmole) and 0.4 mg/ml activated calf thymus DNA as substrates, as described previously (see Barnes et al, op. cit). Assays were initiated by the addition of 0.025 to 0.06 units of enzyme 1 unit is the amount required to incorporate 250 pmoles of [^3H] dTMP in a standard assay), incubated for 10 minutes at 30°C and terminated by the addition of 200 µl of cold 10% trichloroacetic acid (TCA),10 mM sodium pyrophosphate. Precipitated labeled DNA was collected on glass fiber filter plates, washed, dried, and counted in a liquid scintillation counter. Determination of Ki values. DNA polymerase activity was measured in a 96-well plate format in the absence of dGTP or dATP, depending on the structure of the test compound. Each 25 µl assay contained 30 mM Tris, pH 7.5, 10 mM magnesium acetate, 4 mM dithiothreitol, 20% glycerol, with 25 µM dATP, dCTP, and 10 µM dTTP (^3H-labelled at 1.44 Ci/mmole) and 0.4 mg/ml activated calf thymus DNA as substrates, as described previously. To each well were added 2 µl of compound solution to give final concentrations ranging from 20 - 0.027 µg/ml in the assay. Assays were initiated by the addition of 0.025 to 0.06 units of enzyme (1 unit is the amount required to incorporate 250 pmoles of [^3H] dTMP in a standard assay), incubated for 10 minutes at 30 °C and terminated by the addition of 200 µl of cold 10% trichloroacetic acid, 10 mM sodium pyrophosphate. Precipitated labeled DNA was collected on glass fiber filter plates, washed, dried, and counted in a liquid scintillation counter. Ki is the concentration of test compound that reduces the control polymerase IIIC activity by 50 percent.
as §2

S.aureus (Smith) = test: as above; format: cell-based, Staphylococcus aureus; settings: HBI medium, 16 to 18 hours at 37°C; for MIC: Staphylococcus aureus, read-out: MIC (µg/ml) S.aureus (Smith)
Procedure: as §1, §2

E. fecalis = test: as above; format: cell-based, Enterococcus fecalis; settings: HBI medium, 16 to 18 hours at 37°C; for MIC: Enterococcus, read-out: MIC (µg/ml) E. fecalis
Procedure: as §1, §2

E. fecium = test: as above; format: cell-based, Enterococcus fecium; settings: HBI medium, 16 to 18 hours at 37°C; for MIC: Enterococcus, read-out: MIC (µg/ml) E. fecium
Procedure: as §1, §2

E. coli = test: as above; format: cell-based, Escherichia coli; settings: for MIC: Escherichia coli, read-out: MIC (µg/ml) E. coli
Procedure: as §3, §2

[1] = HBI medium, 16 to 18 hours at 37°C

T1 sequence (P13267 whole entry): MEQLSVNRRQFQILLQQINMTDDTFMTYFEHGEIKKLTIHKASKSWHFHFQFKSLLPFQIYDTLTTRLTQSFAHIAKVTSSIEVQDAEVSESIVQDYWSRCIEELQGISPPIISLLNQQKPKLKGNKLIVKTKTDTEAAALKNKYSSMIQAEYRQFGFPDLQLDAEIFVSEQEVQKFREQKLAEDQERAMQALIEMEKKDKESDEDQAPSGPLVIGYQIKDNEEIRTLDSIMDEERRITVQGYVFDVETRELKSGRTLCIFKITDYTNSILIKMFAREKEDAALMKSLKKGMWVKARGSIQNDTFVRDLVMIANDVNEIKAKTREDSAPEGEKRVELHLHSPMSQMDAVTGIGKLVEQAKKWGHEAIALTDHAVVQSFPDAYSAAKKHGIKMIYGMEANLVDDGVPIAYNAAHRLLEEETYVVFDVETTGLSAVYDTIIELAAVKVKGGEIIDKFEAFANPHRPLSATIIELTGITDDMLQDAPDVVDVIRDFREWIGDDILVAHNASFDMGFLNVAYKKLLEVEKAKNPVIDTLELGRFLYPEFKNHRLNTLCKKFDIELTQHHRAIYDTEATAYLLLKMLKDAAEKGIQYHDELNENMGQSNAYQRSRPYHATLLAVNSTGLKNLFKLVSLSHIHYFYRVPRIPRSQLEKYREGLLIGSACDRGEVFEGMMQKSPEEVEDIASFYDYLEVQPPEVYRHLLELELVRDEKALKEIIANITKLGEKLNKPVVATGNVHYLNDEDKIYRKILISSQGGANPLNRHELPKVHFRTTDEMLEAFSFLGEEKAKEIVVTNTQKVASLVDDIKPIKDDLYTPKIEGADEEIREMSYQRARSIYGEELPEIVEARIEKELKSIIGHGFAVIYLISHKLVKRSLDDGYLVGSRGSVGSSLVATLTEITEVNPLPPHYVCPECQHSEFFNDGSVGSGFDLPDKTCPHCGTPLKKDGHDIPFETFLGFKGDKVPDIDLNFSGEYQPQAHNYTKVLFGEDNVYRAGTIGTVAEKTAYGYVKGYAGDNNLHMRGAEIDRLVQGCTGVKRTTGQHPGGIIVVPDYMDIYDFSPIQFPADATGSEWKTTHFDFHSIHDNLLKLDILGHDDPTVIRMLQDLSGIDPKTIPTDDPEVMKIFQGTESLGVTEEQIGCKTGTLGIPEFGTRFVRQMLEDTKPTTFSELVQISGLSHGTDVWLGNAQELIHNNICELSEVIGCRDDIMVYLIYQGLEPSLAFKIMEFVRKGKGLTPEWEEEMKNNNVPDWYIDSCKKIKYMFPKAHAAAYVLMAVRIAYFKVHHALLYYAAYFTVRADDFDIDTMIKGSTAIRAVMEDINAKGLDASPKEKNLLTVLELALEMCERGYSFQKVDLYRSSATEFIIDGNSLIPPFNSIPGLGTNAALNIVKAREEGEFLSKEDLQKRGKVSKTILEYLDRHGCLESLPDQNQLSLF

Molecule | Ki (B. subtilis Pol IIIC; read-out: Ki (µM) Pol IIIC) [µM] | MIC (µg/ml) B. subtilis (B. subtilis) [µg/mL] | MIC (µg/ml) S. aureus (S. aureus) [µg/mL] | MIC (µg/ml) S.aureus (Smith) (S.aureus (Smith)) [µg/mL] | MIC (µg/ml) E. fecalis (E. fecalis) [µg/mL] | MIC (µg/ml) E. fecium (E. fecium) [µg/mL] | MIC (µg/ml) E. coli (E. coli; [1]) [µg/mL] | Ki (B. subtilis Pol IIIC; Ki (µM) Pol IIIC) [µM] | MIC (B. subtilis) [µg/mL] | MIC (S. aureus) [µg/mL] | MIC (S.aureus (Smith)) [µg/mL] | MIC (E. fecalis) [µg/mL] | MIC (E. fecium) [µg/mL] | MIC (E. coli; [1]) [µg/mL] | MIC (E. coli) [µg/mL]
3-{5-[1-(1-ethyl-3-carboxy-4-oxo-6,8-difluoro-7-quinolyl)-3-(1,3-diazabicyclononyl)]pentyl}-6-(3-ethyl-4-methylanilino)uracil [Compound 88] | 0.024 | 0.625 | 1.25 | 1.25 | 2.5 | 5 | >20 |  |  |  |  |  |  |  | 
Cc1ccc(Nc2cc(=O)n(CCCCN3CCN(c4cc5c(cc4F)c(=O)c(C(=O)O)cn5C4CC4)C[C@H]3C)c(=O)[nH]2)cc1C [Compound 96, (R)-3-{4-[1-(1-cyclopropyl-3-carboxy-4-oxo-6-fluoro-7-quinolyl)-3-methyl-4-piperazinyl]butyl}-6-(3,4-dimethylanilino)uracil] |  |  |  |  |  |  |  | 0.019 | 0.156 (≈ 0.247 µM) | 0.625 (≈ 0.991 µM) | 0.313 (≈ 0.496 µM) | 0.625 (≈ 0.991 µM) | 0.625 (≈ 0.991 µM) | 5 (≈ 7.93 µM) | 
O=C(O)c1cn(C2CC2)c2cc(N3CCN(CCCCn4c(=O)cc(NCc5ccc(Cl)c(Cl)c5)[nH]c4=O)CC3)c(F)cc2c1=O [Compound 68, 3-{4-[1-(1-cyclopropyl-3-carboxy-4-oxo-6-fluoro-7-quinolyl)-4-piperazinyl]butyl}-6-(3,4-dichlorobenzylamino)uracil] |  |  |  |  |  |  |  | 0.047 | 0.95 (≈ 1.41 µM) | 1.25 (≈ 1.86 µM) | 0.625 (≈ 0.931 µM) | 40 (≈ 59.6 µM) | 1.25 (≈ 1.86 µM) | 12.5 (≈ 18.6 µM) | 
CCc1cc(Nc2cc(=O)n(CCCCCN3CCCC4CN(c5cc6c(cc5F)c(=O)c(C(=O)O)cn6C5CC5)CC43)c(=O)[nH]2)ccc1C (stereo not shown) [Compound 82, 3-{5-[1-(1-cyclopropyl-3-carboxy-4-oxo-6-fluoro-7-quinolyl)-3-(1,3-diazabicyclononyl)]pentyl}-6-(3-ethyl-4-methylanilino)uracil] |  |  |  |  |  |  |  | 0.041 | 1.25 (≈ 1.83 µM) | 2.5 (≈ 3.65 µM) | 1.25 (≈ 1.83 µM) | 20 (≈ 29.2 µM) | > 80 | > 80 | 
CCc1cc(Nc2cc(=O)n(CCCCN3CCN(c4cc5c(cc4F)c(=O)c(C(=O)O)cn5C4CC4)C[C@H]3C)c(=O)[nH]2)ccc1C [Compound 95, (R)-3-{4-[1-(1-cyclopropyl-3-carboxy-4-oxo-6-fluoro-7-quinolyl)-3-methyl-4-piperazinyl]butyl}-6-(3-ethyl-4-methylanilino)uracil] |  |  |  |  |  |  |  | 0.012 | 0.235 (≈ 0.364 µM) | 1.25 (≈ 1.94 µM) | 0.625 (≈ 0.969 µM) | 0.625 (≈ 0.969 µM) | 0.625 (≈ 0.969 µM) | 10 (≈ 15.5 µM) | 
CCc1cc(Nc2cc(=O)n(CCCCCN3CCC4CN(c5cc6c(cc5F)c(=O)c(C(=O)O)cn6C5CC5)CC43)c(=O)[nH]2)ccc1C (stereo not shown) [Compound 81, 3-{5-[1-(1-cyclopropyl-3-carboxy-4-oxo-6-fluoro-7-quinolyl)-3-(1,3-diazabicyclooctyl)]pentyl}-6-(3-ethyl-4-methylanilino)uracil] |  |  |  |  |  |  |  | 0.04 | 1.25 (≈ 1.86 µM) | 5 (≈ 7.45 µM) | 2.5 (≈ 3.73 µM) | 3.7 (≈ 5.52 µM) | 12.5 (≈ 18.6 µM) | > 80 | 
CCc1cc(Nc2cc(=O)n(CCCCN3CCN(c4c(F)cc5c(=O)c(C(=O)O)cn(C6CC6)c5c4F)CC3CO)c(=O)[nH]2)ccc1C (stereo not shown) [Compound 91, 3-{4-[1-(1-cyclopropyl-3-carboxy-4-oxo-6,8-difluoro-7-quinolyl)-3-hydroxymethyl-4-piperazinyl]butyl}-6-(3-ethyl-4-methylanilino)uracil] |  |  |  |  |  |  |  | 0.011 | 0.235 (≈ 0.346 µM) | 1.25 (≈ 1.84 µM) | 0.625 (≈ 0.921 µM) | 2.5 (≈ 3.68 µM) | 2.5 (≈ 3.68 µM) | > 80 | 
CCc1cc(Nc2cc(=O)n(CCCCCN3CCCC4CN(c5cc6c(cc5F)c(=O)c(C(=O)O)cn6CC)CC43)c(=O)[nH]2)ccc1C (stereo not shown) [Compound 80, 3-{5-[1-(1-ethyl-3-carboxy-4-oxo-6-fluoro-7-quinolyl)-3-(1,3-diazabicyclononyl)]pentyl}-6-(3-ethyl-4-methylanilino)uracil] |  |  |  |  |  |  |  | 0.037 | 2.5 (≈ 3.72 µM) | 7.5 (≈ 11.1 µM) | 5 (≈ 7.43 µM) | 12.5 (≈ 18.6 µM) | 20 (≈ 29.7 µM) |  | 0.8 (≈ 1.19 µM)
CCc1cc(Nc2cc(=O)n(CCCCCN3CCOC4CN(c5c(F)cc6c(=O)c(C(=O)O)cn(CC)c6c5F)CC43)c(=O)[nH]2)ccc1C (stereo not shown) [Compound 85, 3-{5-[1-(1-ethyl-3-carboxy4-oxo-6,8-difluoro-7-quinolyl)-3-(5-oxa-1,3-diazabicyclononyl)]pentyl)-6-(3-ethyl-4-methylanilino)uracil] |  |  |  |  |  |  |  | 0.059 | 0.313 (≈ 0.452 µM) | 5 (≈ 7.22 µM) | 6.1 (≈ 8.81 µM) | 7.5 (≈ 10.8 µM) | 12.5 (≈ 18 µM) | > 80 | 
CCc1cc(Nc2cc(=O)n(CCCCCN3CC4CN(c5cc6c(cc5F)c(=O)c(C(=O)O)cn6C5CC5)CC4C3)c(=O)[nH]2)ccc1C (stereo not shown) [Compound 86, 3-{5-[1-(1-cyclopropyl-3-carboxy-4-oxo-6-fluoro-7-quinolyl)-4-(1,4-diazabicyclooctyl)]pentyl}-6-(3-ethyl-4-methylanilino)uracil] |  |  |  |  |  |  |  | 0.054 | 2.5 (≈ 3.73 µM) | 5 (≈ 7.45 µM) | 2.5 (≈ 3.73 µM) | 10 (≈ 14.9 µM) | 40 (≈ 59.6 µM) | > 80 | 
